The target of experiment [1] is T1, LsrK (Salmonella typhimurium, UniProt Q8ZKQ6). The experiment in a line: LsrK inhibition assay (Kinase-Glo luminescence). The class given is biochemical. As for the experimental part: (§1) To express LsrK with a 6 × His-tag at the C-terminus, the LsrK encoding gene of Salmonella typhimurium was amplified using primers carrying restriction endonuclease sites BamHI and XhoI. The amplified product was cloned into the expression vector pET-28a with a C-terminal 6 × His-tag and transfected into E. coli BL21 (DE3).
T1 sequence (Q8ZKQ6 whole entry): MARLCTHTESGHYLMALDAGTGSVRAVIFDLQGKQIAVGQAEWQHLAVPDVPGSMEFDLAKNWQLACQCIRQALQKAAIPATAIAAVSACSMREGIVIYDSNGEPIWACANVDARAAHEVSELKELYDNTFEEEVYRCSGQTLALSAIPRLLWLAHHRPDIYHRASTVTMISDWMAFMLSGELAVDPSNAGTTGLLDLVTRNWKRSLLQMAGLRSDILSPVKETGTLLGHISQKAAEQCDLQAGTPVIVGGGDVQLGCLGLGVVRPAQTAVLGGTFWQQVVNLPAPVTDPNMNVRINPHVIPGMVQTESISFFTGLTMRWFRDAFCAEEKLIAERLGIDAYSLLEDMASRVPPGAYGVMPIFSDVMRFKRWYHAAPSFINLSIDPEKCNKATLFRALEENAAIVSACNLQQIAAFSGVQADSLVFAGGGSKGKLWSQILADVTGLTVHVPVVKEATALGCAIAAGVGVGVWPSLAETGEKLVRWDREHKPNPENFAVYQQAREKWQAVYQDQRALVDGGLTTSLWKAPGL
This assay was performed as previously described ([Gatta et al., 2019]), and the conditions were optimized. […] 74 purchased compounds were dissolved in dimethyl sulfoxide (20% v/v DMSO in reaction buffer) at a concentration of 2 mM. Briefly, 10 μL DPD, 10 μL LsrK, and 5 μL compound were added to a 96-well plate, and 25 μL ATP or 25 μL reaction buffer was added after 30 min incubation. The plate was incubated for 10 min at 37°C, then 50 μL of kit reagent was added, and the plate was incubated at 37°C for 15 min. The luminescence signal was measured using an Enspire 2300 microplate reader (PerkinElmer). Dose-response tests were carried out to verify the activity of hits chosen by primary screening. (200 μM–6.25 µM) ([Medarametla et al., 2018]). The inhibition percentage of each tested compound was determined as previously described and IC50 was calculated using four logistic parameters.

For experiment [2], the system named is AI-2-mediated QS (lsr promoter luminescence, reporter strain WHQ02). The experiment in a line: Cell-based AI-2-mediated QS interference assay. Set-up: species or system E. coli. An excerpt: All chemicals were purchased from Sigma-Aldrich (St. Louis, MO, United States) unless otherwise stated. DPD was purchased from the […] ZZBIO Co., LTD. (Shanghai, China). The Kinase-Glo Max Luminescent Kinase Assay Kit was purchased from Promega (Madison, WI, United States). NTA sensor chips were purchased from GE Healthcare (Chicago, IL, United States). All compounds used as potential inhibitors of LsrK were purchased from Topscience Biotechnology Co. Ltd. (Shanghai, China). The QS reporter strain WHQ02 (E. coli BL21 ΔTolC pWHQ01) was donated by Huiqi Wen (Institute of Microbiology and Epidemiology, Academy of Military Sciences, Beijing, China). The plasmid pWHQ01 was constructed by cloning the lsr promoter and the luxCDABE luminescent gene. BamHI and XhoI were purchased from New England Biolabs (Ipswich, MA, United States). pET-28a was purchased from Novagen (Madison, WI, United States). Escherichia coli BL21 (DE3) cells were purchased from TransGen Biotech Co., LTD. (Beijing, China). A Ni-NTA column was purchased from Sangon Biotech (Shanghai, China). Sodium dodecyl sulfate-polyacrylamide gel electrophoresis (SDS-PAGE) and the Bradford Protein Assay Kit were purchased from Thermo Fisher Scientific (Waltham, MA, United States).
(§2) WHQ02 cultured overnight were diluted 1:100 in fresh LB supplemented with 100 μg/mL ampicillin and grown at 30°C and until the logarithmic phase (OD600 = 0.4–0.6). The bacterial culture was centrifuged at 4,000 × g for 5 min, and the pellet was resuspended in fresh LB medium to prepare a suspension of 2 McFarland standard and added to the 96-well plate. In the experimental group, 74 compounds (final concentrations ranging from 100 to 3.125 μM) were added to reach a total volume of 100 µL. In addition, 100 µL LB medium with an equal volume of DMSO (negative control) or 100 µL LB supplemented with 2% glucose and the same volume of DMSO (positive control) were added. Bacteria was cultured at 37°C with shaking for 3 h. The […] of WHQ02 is directly regulated by the lsr promoter, reflecting the strength of QS. The luminescence and OD600 were measured using an Enspire 2300 microplate reader (Perkin Elmer). To further study the effect of compounds on bacterial growth, overnight cultured WHQ02 was diluted 1:1,000 with LB medium and added to 96 well plate. Then, the compounds were added to a 96-well plate (final concentration: 100 µM) and diluted in a gradient. The same volume of DMSO was added to the control group. The plates were incubated at 37°C for 18 h. OD600 values were recorded using an Enspire 2300 microplate reader. The experiment was performed in triplicate.

Experiment [3] concerns WHQ02 (E. coli BL21 ΔTolC pWHQ01). The experiment in a line: Growth inhibition of the reporter strain (OD600). The class given is cell-based. To be noted: 100 to 3.13 μM. Here is the method:
as §2
The 12 hits showing >60% LsrK inhibition were tested for QS inhibition using cell-based AI-2-mediated QS interference assay, as previously described [Baba et al., 2006]). To ensure that lower luminescence was the result of QS inhibition not the chemical toxicity or antibacterial activity, strain growth inhibition was assessed concurrently. […] Therefore, a parallel experiment to test the MIC of compounds at a low bacterial density was conducted, indirectly reflecting the potential growth inhibition to avoid false positives.

Experiment [4] has as its target T1, LsrK. The experiment in a line: SPR assay. Format: binding.
Source text: as §1
His-tagged LsrK was immobilized in the NTA sensor chip (GE Healthcare) in Biacore 8 K using a running buffer consisting of 1 × PBS-T and 5% v/v DMSO. Serially diluted small molecules (concentration range: 50 to 1.56 µM) were injected. Intermediate concentration (12.5 µM) was set as a repeat, and 1 × PBS-T with 5% v/v DMSO was set as the control. The association time was set to 120 s; the dissociation time was set to 130 s; and the flow rate was set to 30 μL/min. The resulting data were fitted to the affinity binding model using Biacore Evaluation Software (GE Healthcare).

Entries after “also recorded” stand apart in the source; their conditions may differ. Read-outs that look alike come from different tables or passages of the source. A value given as a limit tells only on which side of the number the result lay.

Data on 1 compound can be found in article PMC10244669, “Virtual screening–based discovery of AI-2 quorum sensing inhibitors that interact with an allosteric hydrophobic site of LsrK and their functional evaluation” (Frontiers in Chemistry, 2023).

As for `NC(=O)c1cc(Cc2ccccc2)sc1NC(=O)C1C2CCC(C2)C1C(=O)O` (centres unmarked) [Y205-6768], the IC50 on LsrK [1] (50 μM ATP, mean ± SD, n = 3, read-out: IC50A) amounted to 8.73 ± 0.5 µM; at LsrK [1] (100 μM ATP, mean ± SD, n = 3, read-out: IC50B) it was 16.8 ± 0.76 µM; at LsrK [1] (150 μM ATP, mean ± SD, n = 3, read-out: IC50C), 26 ± 1.32 µM; in experiment [2] (Escherichia coli, cell-based QS interference assay, WHQ02, mean ± SD, n = 3), 11.3 ± 0.7 µM. Moreover, the inhibition at 200 µM against LsrK [1] (Table 1, hits at 200 μM with 100 μM ATP, mean ± SD, n = 3) came to 101 ± 8.39%. At LsrK [1] (from IC50 values at 50, 100 and 150 μM ATP), the “type of LsrK inhibition” value is “ATP-competitive inhibitors”. Besides, the “AI-2 QS inhibitory activity (in words)” value in experiment [2] (100 to 3.13 μM) is reported as “significant QS inhibitory activities”. Besides, in experiment [2] (100 to 3.13 μM), the “maximum AI-2 QS inhibition” value is on record as more than 80%. Further, in experiment [3], the maximum growth inhibition was less than 40%. For the same compound, at LsrK [4] (His-tagged LsrK on NTA chip, 50 to 1.56 µM, affinity binding model), binding was characterised by a dissociation constant (Kd) of 8.49 µM. For the same compound, the “LsrK specific binding (in words)” value on LsrK [4] (SPR) is recorded as “specifically bound to LsrK; also recorded: exhibited LsrK specific binding”.
